In PubChem BioAssay AID248 (DTP/NCI, 2004):
Where “and” joins values, the source holds several entries; their conditions need not be identical. Identical values can stand only once. Toxic doses and inconclusive results are not listed. No stated cut-off is given here; in the data, active means T/C of 150% or more; inactive means T/C below 125%.

System: L1210 leukemia ip in BDF1 mice, survival T/C
Assay: NCI In Vivo Anticancer Drug Screen. Data for tumor model L1210 Leukemia (intraperitoneal) in B6D2F1 (BDF1) mice
Settings: endpoint: mean survival time, higher = longer survival
Method in brief: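 Tumor cells were implanted, animals were treated, and survival was followed. The result divides the treated measurement by the vehicle-control measurement.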

[1] = dose: 50.0 mg/kg/injection, schedule: Q01DX009 (ip), vehicle: saline with Tween-80
[2] = dose: 100.0 mg/kg/injection, schedule: Q01DX001 (ip), vehicle: saline with Tween-80
[3] = dose: 100.0 mg/kg/injection, schedule: Q01DX009 (ip), vehicle: saline with Tween-80
[4] = dose: 100.0 mg/kg/injection, schedule: Q04DX002 (ip), vehicle: saline with Tween-80
[5] = dose: 200.0 mg/kg/injection, schedule: Q01DX001 (ip), vehicle: saline with Tween-80
[6] = dose: 200.0 mg/kg/injection, schedule: Q01DX009 (ip), vehicle: saline with Tween-80
[7] = dose: 200.0 mg/kg/injection, schedule: Q04DX002 (ip), vehicle: saline with Tween-80
[8] = dose: 400.0 mg/kg/injection, schedule: Q01DX001 (ip), vehicle: saline with Tween-80
[9] = dose: 400.0 mg/kg/injection, schedule: Q04DX002 (ip), vehicle: saline with Tween-80
[10] = dose: 100.0 mg/kg/injection, schedule: Q01DX009 (ip), vehicle: Klucel (hydroxypropylcellulose) (HPC)
[11] = dose: 100.0 mg/kg/injection, schedule: Q04DX003 (ip), vehicle: Klucel (hydroxypropylcellulose) (HPC)
[12] = dose: 200.0 mg/kg/injection, schedule: Q01DX009 (ip), vehicle: Klucel (hydroxypropylcellulose) (HPC)
[13] = dose: 200.0 mg/kg/injection, schedule: Q04DX003 (ip), vehicle: Klucel (hydroxypropylcellulose) (HPC)
[14] = dose: 400.0 mg/kg/injection, schedule: Q01DX009 (ip), vehicle: Klucel (hydroxypropylcellulose) (HPC)
[15] = dose: 400.0 mg/kg/injection, schedule: Q04DX003 (ip), vehicle: Klucel (hydroxypropylcellulose) (HPC)
[16] = dose: 100.0 mg/kg/injection, schedule: Q04DX003 (ip), vehicle: saline with Tween-80
[17] = dose: 200.0 mg/kg/injection, schedule: Q04DX003 (ip), vehicle: saline with Tween-80
[18] = dose: 400.0 mg/kg/injection, schedule: Q04DX003 (ip), vehicle: saline with Tween-80
[19] = dose: 100.0 mg/kg/injection, schedule: Q01DX001 (ip), vehicle: carboxymethylcellulose (CMC)
[20] = dose: 200.0 mg/kg/injection, schedule: Q01DX001 (ip), vehicle: carboxymethylcellulose (CMC)
[21] = dose: 400.0 mg/kg/injection, schedule: Q01DX001 (ip), vehicle: carboxymethylcellulose (CMC)
[22] = dose: 400.0 mg/kg/injection, schedule: Q01DX009 (ip), vehicle: saline with Tween-80
[23] = dose: 100.0 mg/kg/injection, schedule: Q01DX001 (ip), vehicle: Klucel (hydroxypropylcellulose) (HPC)
[24] = dose: 200.0 mg/kg/injection, schedule: Q01DX001 (ip), vehicle: Klucel (hydroxypropylcellulose) (HPC)
[25] = dose: 400.0 mg/kg/injection, schedule: Q01DX001 (ip), vehicle: Klucel (hydroxypropylcellulose) (HPC)
[26] = dose: 100.0 mg/kg/injection, schedule: Q01DX001 (ip), vehicle: saline
[27] = dose: 200.0 mg/kg/injection, schedule: Q01DX001 (ip), vehicle: saline
[28] = dose: 400.0 mg/kg/injection, schedule: Q01DX001 (ip), vehicle: saline

Measured: T/C

O=C(NC(=S)Nc1ccc2c(c1)C(=O)c1ccccc1C2=O)c1cccc(Br)c1
inactive: [1] 98 % of control | [2] 96 % of control | [3] 98 % of control and 92 % of control | [4] 96 % of control and 97 % of control | [5] 93 % of control | [6] 97 % of control and 98 % of control | [7] 94 % of control and 103 % of control | [8] 103 % of control | [9] 96 % of control and 97 % of control

COC(=O)C(O)c1ccc2c(c1)OCO2 (stereo not drawn)
inactive: dose: 100.0 mg/kg/injection, schedule: Q04DX003 (ip), vehicle: saline sonified 97 % of control | dose: 200.0 mg/kg/injection, schedule: Q04DX003 (ip), vehicle: saline sonified 97 % of control | dose: 400.0 mg/kg/injection, schedule: Q04DX003 (ip), vehicle: saline sonified 93 % of control

CC(C)OC(=O)Nc1ccc(-c2ccc(NC(=O)OC(C)C)cc2)cc1
inactive: [10] 95 % of control | [11] 91 % of control | [12] 97 % of control | [13] 91 % of control | [14] 97 % of control | [15] 98 % of control

COC(=O)C(I)C(OC)c1ccccc1 (stereo not drawn)
inactive: [16] 98 % of control | [17] 96 % of control | [18] 95 % of control

CCCCCC(CN(C)C)C(=O)/C=C\c1ccc(Cl)cc1Cl (stereo not drawn)
inactive: dose: 12.5 mg/kg/injection, schedule: Q04DX003 (ip), vehicle: alcohol 87 % of control | dose: 25.0 mg/kg/injection, schedule: Q04DX003 (ip), vehicle: alcohol 97 % of control | dose: 50.0 mg/kg/injection, schedule: Q04DX003 (ip), vehicle: alcohol 97 % of control

CC[n+]1ccc(Nc2ccc(NC(=O)c3ccc([N+](=O)[O-])cc3)cc2)cc1
inactive: dose: 12.5 mg/kg/injection, schedule: Q01DX009 (ip), vehicle: saline with Tween-80 100 % of control | dose: 25.0 mg/kg/injection, schedule: Q01DX009 (ip), vehicle: saline with Tween-80 91 % of control | [1] 88 % of control | [2] 100 % of control | [3] 92 % of control | [5] 110 % of control | [8] 98 % of control

C1CC2(C34CCC(CC3)C4)CCC1C2
inactive: dose: 50.0 mg/kg/injection, schedule: Q01DX001 (ip), vehicle: carboxymethylcellulose (CMC) 105 % of control | [19] 96 % of control | [20] 105 % of control | [21] 88 % of control

CCc1ccccc1NC(=O)C(c1ccccc1)c1ccccc1
inactive: [10] 100 % of control | [11] 100 % of control | [12] 105 % of control | [13] 93 % of control | [14] 96 % of control | [15] 90 % of control

CCOc1ccccc1NC(=O)Oc1ccc(-c2ccccc2)cc1
inactive: [3] 98 % of control | [6] 100 % of control | [22] 93 % of control

CN(C)P(Cl)(Cc1ccccc1)(c1ccccc1)c1ccccc1
inactive: dose: 3.12 mg/kg/injection, schedule: Q01DX009 (ip), vehicle: saline 106 % of control | dose: 6.25 mg/kg/injection, schedule: Q01DX009 (ip), vehicle: saline 105 % of control | dose: 12.5 mg/kg/injection, schedule: Q04DX003 (ip), vehicle: saline 106 % of control

CC(=O)CC(C)(C)N
inactive: [16] 94 % of control | [17] 86 % of control

COc1ccc(NC(=O)Oc2cccc(OC(=O)c3ccccc3)c2)cc1
inactive: [23] 96 % of control | [10] 104 % of control and 106 % of control | dose: 100.0 mg/kg/injection, schedule: Q04DX002 (ip), vehicle: Klucel (hydroxypropylcellulose) (HPC) 93 % of control and 103 % of control and 106 % of control | [11] 98 % of control | [24] 93 % of control | [12] 100 % of control and 103 % of control | dose: 200.0 mg/kg/injection, schedule: Q04DX002 (ip), vehicle: Klucel (hydroxypropylcellulose) (HPC) 99 % of control and 100 % of control and 103 % of control | [13] 98 % of control | [25] 93 % of control | [14] 97 % of control and 98 % of control | dose: 400.0 mg/kg/injection, schedule: Q04DX002 (ip), vehicle: Klucel (hydroxypropylcellulose) (HPC) 93 % of control and 97 % of control and 99 % of control | [15] 91 % of control

c1ccc(C(NC2=NCCCCCC2)c2ccco2)cc1 (stereo not drawn)
inactive: dose: 12.5 mg/kg/injection, schedule: Q01DX009 (ip), vehicle: Klucel (hydroxypropylcellulose) (HPC) 98 % of control | dose: 25.0 mg/kg/injection, schedule: Q01DX009 (ip), vehicle: Klucel (hydroxypropylcellulose) (HPC) 100 % of control

CC12CCC3C(CC=C4CC(SC(=N)N)CCC43C)C1CCC2=O (stereo not drawn)
inactive: [23] 95 % of control | [11] 97 % of control | [24] 95 % of control | [13] 95 % of control | [25] 101 % of control | [15] 97 % of control

CCCc1cc2c3c(c(=O)oc2cc1OC)CCCC3
inactive: [16] 93 % of control | [17] 104 % of control | [18] 93 % of control

COC(c1ccccc1)C(OC)c1ccccc1 (stereo not drawn)
inactive: dose: 50.0 mg/kg/injection, schedule: Q04DX003 (ip), vehicle: Klucel (hydroxypropylcellulose) (HPC) 96 % of control | [26] 109 % of control | [11] 98 % of control | [27] 94 % of control | [13] 98 % of control | [28] 103 % of control

CCC(Cl)COP(=O)(OCC(Cl)CC)C(c1ccc(Cl)c(Cl)c1)P(=O)(OCC(Cl)CC)OCC(Cl)CC (stereo not drawn)
inactive: [11] 101 % of control | [13] 98 % of control | [15] 96 % of control

O=C(OCC(OC(=O)c1ccccc1)C(OC(=O)c1ccccc1)C(OC(=O)c1ccccc1)C(SCc1ccccc1)SCc1ccccc1)c1ccccc1 (stereo not drawn)
inactive: [19] 101 % of control | [20] 97 % of control | [21] 95 % of control

O=C(O)c1ccccc1C(=O)c1cccc2ccccc12
inactive: dose: 100.0 mg/kg/injection, schedule: Q04DX002 (ip), vehicle: gum acacia 102 % of control | dose: 200.0 mg/kg/injection, schedule: Q04DX002 (ip), vehicle: gum acacia 104 % of control | dose: 400.0 mg/kg/injection, schedule: Q04DX002 (ip), vehicle: gum acacia 95 % of control

CCOC(=O)C1C(=O)NC(=O)CC1C (stereo not drawn)
inactive: [16] 98 % of control | [6] 100 % of control | [17] 96 % of control | [22] 101 % of control | [18] 104 % of control

CC(O)COC(C)C (stereo not drawn)
inactive: [26] 98 % of control | [27] 89 % of control | [28] 96 % of control

Nc1ccc(-c2ccc(N)cc2Br)c(Br)c1
inactive: [3] 99 % of control | [16] 95 % of control | [6] 105 % of control | [17] 97 % of control | [22] 88 % of control | [18] 92 % of control

O=C(OC1CCOCC1OC(=O)c1ccccc1)c1ccccc1 (stereo not drawn)
inactive: [4] 100 % of control | [7] 100 % of control | [9] 96 % of control

CC1=CC(C)(C)Nc2ccc(Nc3ccccc3)cc21
inactive: dose: 75.0 mg/kg/injection, schedule: Q01DX001 (ip), vehicle: saline 101 % of control | dose: 150.0 mg/kg/injection, schedule: Q01DX001 (ip), vehicle: saline 96 % of control

CC(=O)OCc1cc(=O)c(OC(C)=O)co1
inactive: [11] 112 % of control | [13] 96 % of control | [15] 98 % of control

N#CCNC(=O)c1ccc(I)cc1
inactive: [23] 111 % of control | [24] 95 % of control | [25] 106 % of control

O=C(O)C1C(C(=O)O)C2(Cl)C(Cl)=C(Cl)C1(Cl)C2(Cl)Cl.[Cu+2] (stereo not drawn)
inactive: dose: 25.0 mg/kg/injection, schedule: Q01DX001 (ip), vehicle: Klucel (hydroxypropylcellulose) (HPC) 92 % of control | dose: 50.0 mg/kg/injection, schedule: Q01DX001 (ip), vehicle: Klucel (hydroxypropylcellulose) (HPC) 97 % of control | dose: 50.0 mg/kg/injection, schedule: Q01DX009 (ip), vehicle: saline sonified 95 % of control

c1ccc(C[Si](c2ccccc2)c2ccccc2)cc1
inactive: [11] 107 % of control | [13] 100 % of control | [15] 98 % of control
